{"source": "paper PMC6005341", "about": "“Identification of “sarsasapogenin-aglyconed” timosaponins as novel Aβ-lowering modulators of amyloid precursor protein processing” (Chemical Science, 2016)", "test_system": "Aβ42 levels in rat primary cortical neuron culture", "assay": "Aβ42 in conditioned medium of rat primary cortical neuron culture, 5-day incubation", "type": "cell-based", "conditions": "n = 3", "excerpt": "Reagents: All reagents were of analytical grade (purity > 98%) and were purchased from Sigma-Aldrich Chemical Co. unless otherwise specified. SSG (1) was purchased from Wako Pure Chemical Industries, Ltd. Diosgenin (6), Dioscin (9), Polyphyllin D (10), Timosaponin BI (22) and Timosaponin BII (23) were purchased from Chengdu Must Bio-Technology Co.\nLtd. Yamogenin (7) was bought from Ambinter c/o Greenpharma while Smilagenin (24) was bought from Steraloids Inc. Substances dissolved in DMSO as stock solutions. Cell culture medium constituents were purchased from Life Technologies, Inc.\nCell culture: Neuro-2A cells expressing Swedish mutants of APP (N2A-APPswe provided by Prof. Yifan Han, The Hong Kong Polytechnic University)1 was cultured in minimal essential medium with 2 mM glutamine, 2 mM pyruvate and 10% fetal bovine serum. Cells were seeded at 6-well plate at 1×106 cells/mL and grown for two days until confluence. The medium was replaced and the testing compounds were added at indicated concentrations for […]\nPrimary cortical neurons were prepared from embryonic day 17 Sprague-Dawley rats (Laboratory Animal Unit, The University of Hong Kong). Cerebral cortices were mechanically dissociated in complete medium (MEM with 18 mM glucose; 2 mM L-glutamine; 5% FBS; hormone cocktail, penicillin (50 U/mL), streptomycin (50 μg/mL), and […]). Cells were seeded onto six-well plate (0.5 × 10^6 cells/well) pre-coated with poly-L-lysine. […]\nrabbit antibody (Millipore). The immunoreactivities were detected using enhanced chemiluminescence reagents (GE Health care). […]\nAβ ELISA: Aβ concentrations in conditioned medium were assayed using ELISA kits for human Aβ40, human Aβ42 (ultrasensitive) (Invitrogen), human Aβ38 (MyBioSource) (in N2A-APPswe cells) or Wako High Sensitive Aβx-42 ELISA kit (in Rat primary cortical neuron culture). The viability of the N2A-APPswe and Primary cortical neurons were determined by MTT and LDH release assays, respectively. […]"}
{"smiles": "C[C@H]1CC[C@@]2(OC1)O[C@H]1C[C@H]3[C@@H]4CC[C@@H]5C[C@@H](O)CC[C@]5(C)[C@H]4CC[C@]3(C)[C@H]1[C@@H]2C", "note": "[SSG (1), sarsasapogenin]", "values": [{"measurement": "Aβ42 reduction (%)", "setting": "5 μM", "result": "25 ± 4", "unit": "%"}]}
{"smiles": "C[C@H]1CC[C@@]2(OC1)O[C@H]1C[C@H]3[C@@H]4CC[C@@H]5C[C@@H](O[C@@H]6O[C@H](CO)[C@H](O)[C@H](O)[C@H]6O[C@@H]6O[C@H](CO)[C@@H](O)[C@H](O)[C@H]6O)CC[C@]5(C)[C@H]4CC[C@]3(C)[C@H]1[C@@H]2C", "note": "[TAIII (2), timosaponin A III]", "values": [{"measurement": "Aβ42 reduction (%)", "setting": "5 μM", "result": "42 ± 9", "unit": "%"}]}
{"smiles": "C[C@H]1CC[C@@]2(OC1)O[C@H]1C[C@H]3[C@@H]4CC[C@@H]5C[C@@H](O[C@@H]6O[C@H](CO)[C@H](O)[C@H](O)[C@H]6O)CC[C@]5(C)[C@H]4CC[C@]3(C)[C@H]1[C@@H]2C", "note": "[TAI (3), timosaponin A I]", "values": [{"measurement": "Aβ42 reduction (%)", "setting": "10 μM", "result": "28 ± 5", "unit": "%"}]}
